Measured values as given in US6489318B1, “Ethylidene derivatives of tricyclic carbapenems” (LEK, tovarna farmacevtskih in kemicnih izdelkov, d.d., priority 1996, dated 2002).

tested on: β-lactamase of Escherichia coli 3.5.2.6; assay: Hydrolysis of nitrocefin with β-lactamase in the presence of inhibitors (spectrophotometric, 495 nm); assay type: biochemical; settings: substrate nitrocefin 190 μmole/l; inhibitor 10 μmole/l
Experimental: Determination of inhibitory action of the compounds of the formula I upon the enzyme β-lactamase
The inhibitory action of the compounds of the formula I was determined according to standard methodology (Bush, K. and Sykes, R. B. Methods of Enzymatic Analysis, Third Edition, Vol. 4, p. 280, Verlag Chemie GmbH, Weinheim, 1984). The method comprises a spectrophotometric quantitative (band at 495 nm) measurement of catalytic action of the enzyme β-lactamase from the E. coli EC 3.5.2.6 strain. As a substrate nitrocefin ((7R)-3-((E)-2,4-dinitrostiryl)-7-(2-thienylacetamido)-3-cefem-4-carboxylic acid) was used which has the broadest spectrum of susceptibility and sensibility. The hydrolysis of nitrocefin in the presence of an inhibitor of the enzyme β-lactamase was determined.
Hydrolysis of nitrocefin with β-lactamase of Escherichia coli 3.5.2.6 in the presence of inhibitors

Row | Compound | Inhibitory activity (%)
1 | CC1(C)[C@H](C(=O)O)N2C(=O)C[C@H]2S1(=O)=O [sulbactam, reference compound] | 50
2 | C/C=C1/C(=O)N2C(C(=O)[O-])=C3CCCC[C@@H]3[C@H]12.[Na+] [compound B, sodium (8S,9R)-10-((E)-ethylidene)-11-oxo-1-azatricyclo[7.2.0.0^3,8]undec-2-ene-2-carboxylate] | 23
3 | C/C=C1/C(=O)N2C(C(=O)O)=C3CCSC[C@H]3[C@H]12 [compound A, sodium (8R,9R)-10-((E)-ethylidene)-11-oxo-1-aza-6-thiatricyclo[7.2.0.0^3,8]undec-2-ene-2-carboxylate] | 38
